One block for each compound: values may come before it. Active and inactive are the calls of the source. No cut-off for these calls is given here.
Tests used:
B16-F10 [1] = experiment: Antimelanogenic activity in mouse B16F10 cells assessed as inhibition of alpha-MSH-induced melanin production at 1 to 2 uM after 72 hrs by spectrophotometry; format: functional, cell-based
B16-F10 [2] = experiment: Antimelanogenic activity in mouse B16F10 cells assessed as inhibition of alpha-MSH-induced secreted melanin production after 72 hrs by spectrophotometry; format: functional, cell-based
B16-F10 [3] = experiment: Antimelanogenic activity in mouse B16F10 cells assessed as inhibition of alpha-MSH-induced intracellular melanin production after 72 hrs by spectrophotometry; format: functional, cell-based
[4] = target: T1, Microphthalmia-associated transcription factor (Mus musculus) (UniProt Q08874); experiment: Inhibition of MITF in mouse B16F10 cells assessed as inhibition of alpha-MSH-induced tyrosinase mRNA expression after 48 hrs by RT-PCR analysis; format: cell-based; settings: B16-F10
T1 sequence (whole entry): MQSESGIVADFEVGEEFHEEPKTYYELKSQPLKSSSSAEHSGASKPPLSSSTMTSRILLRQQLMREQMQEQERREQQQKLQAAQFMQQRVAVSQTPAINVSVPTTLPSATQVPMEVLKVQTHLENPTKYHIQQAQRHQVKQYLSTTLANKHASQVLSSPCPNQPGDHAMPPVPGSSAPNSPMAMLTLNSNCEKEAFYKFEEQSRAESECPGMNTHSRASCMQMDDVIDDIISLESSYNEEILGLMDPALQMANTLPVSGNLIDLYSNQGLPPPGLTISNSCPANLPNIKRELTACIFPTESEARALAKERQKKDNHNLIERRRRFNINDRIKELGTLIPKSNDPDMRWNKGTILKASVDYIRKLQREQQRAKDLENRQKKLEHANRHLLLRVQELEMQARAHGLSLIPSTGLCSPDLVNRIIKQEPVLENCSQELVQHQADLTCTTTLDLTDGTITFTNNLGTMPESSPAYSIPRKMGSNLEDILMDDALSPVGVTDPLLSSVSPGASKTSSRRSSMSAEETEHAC

[5] = target: T1, Microphthalmia-associated transcription factor (Mus musculus); experiment: Inhibition of MITF in mouse B16F10 cells assessed as inhibition of alpha-MSH-induced TRP2 mRNA expression after 48 hrs by RT-PCR analysis; format: cell-based; settings: B16-F10
B16-F10 [6] = experiment: Antimelanogenic activity in mouse B16F10 cells assessed as inhibition of alpha-MSH-induced MITF nuclear translocation at 1 uM after 30 mins to 2 hrs by Western blotting analysis; format: functional, cell-based
B16-F10 [7] = experiment: Antimelanogenic activity in mouse B16F10 cells assessed as inhibition of alpha-MSH-induced MITF mRNA expression at 1 uM after 30 mins to 2 hrs by RT-PCR analysis; format: functional, cell-based
[8] = target: T1, Microphthalmia-associated transcription factor (Mus musculus); experiment: Inhibition of MITF in mouse B16F10 cells assessed as inhibition of alpha-MSH-induced TRP1 protein expression after 48 hrs by Western blotting analysis; format: cell-based; settings: B16-F10
[9] = target: T2, Tyrosinase (Mus musculus) (UniProt P11344); experiment: Inhibition of tyrosinase in alpha-MSH-treated mouse B16F10 cells assessed as reduction in L-DOPA oxidase activity at 0.5 to 2 uM after 72 hrs; format: cell-based; settings: B16-F10
T2 sequence (whole entry): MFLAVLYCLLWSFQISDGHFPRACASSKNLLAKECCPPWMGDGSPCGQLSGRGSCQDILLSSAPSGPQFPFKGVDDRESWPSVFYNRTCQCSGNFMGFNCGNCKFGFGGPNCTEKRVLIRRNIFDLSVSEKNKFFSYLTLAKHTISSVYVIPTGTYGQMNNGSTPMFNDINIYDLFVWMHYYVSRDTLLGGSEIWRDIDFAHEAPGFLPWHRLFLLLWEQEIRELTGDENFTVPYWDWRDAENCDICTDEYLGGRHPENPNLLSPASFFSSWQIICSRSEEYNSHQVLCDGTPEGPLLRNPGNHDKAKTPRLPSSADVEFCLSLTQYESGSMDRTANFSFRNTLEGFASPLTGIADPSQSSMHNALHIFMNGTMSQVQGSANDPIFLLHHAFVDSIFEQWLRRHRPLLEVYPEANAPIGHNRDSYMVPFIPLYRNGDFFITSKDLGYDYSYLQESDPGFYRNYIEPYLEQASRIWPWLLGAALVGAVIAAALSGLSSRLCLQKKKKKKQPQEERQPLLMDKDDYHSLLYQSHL

[10] = target: T1, Microphthalmia-associated transcription factor (Mus musculus); experiment: Inhibition of MITF binding to M-box region of TRP-2 promoter in alpha-MSH-induced mouse B16F10 cells at 1 uM after 24 hrs by Chromatin immunoprecipitation assay; format: cell-based; settings: B16-F10
[11] = target: T1, Microphthalmia-associated transcription factor (Mus musculus); experiment: Inhibition of MITF in mouse B16F10 cells assessed as inhibition of alpha-MSH-induced TRP2 protein expression after 48 hrs by Western blotting analysis; format: cell-based; settings: B16-F10
B16-F10 [12] = experiment: Cytotoxicity against mouse B16F10 cells up to 2 uM after 72 hrs by MTT assay; format: cell-based; settings: b16-f10, 72 h
[13] = target: T2, Tyrosinase (Mus musculus); experiment: Inhibition of tyrosinase in alpha-MSH-treated mouse B16F10 cells up to 100 uM after 72 hrs by L-DOPA oxidase assay; format: cell-based; settings: B16-F10
[14] = target: T1, Microphthalmia-associated transcription factor (Mus musculus); experiment: Inhibition of MITF binding to M-box region of TRP-1 promoter in alpha-MSH-induced mouse B16F10 cells at 1 uM after 24 hrs by Chromatin immunoprecipitation assay; format: cell-based; settings: B16-F10
[15] = target: T1, Microphthalmia-associated transcription factor (Mus musculus); experiment: Inhibition of MITF in mouse B16F10 cells assessed as inhibition of alpha-MSH-induced tyrosinase protein expression after 48 hrs by Western blotting analysis; format: cell-based; settings: B16-F10
B16-F10 [16] = experiment: Antimelanogenic activity in mouse B16F10 cells assessed as inhibition of alpha-MSH-induced MITF protein expression at 1 uM after 30 mins to 2 hrs by Western blotting analysis; format: functional, cell-based
[17] = target: T1, Microphthalmia-associated transcription factor (Mus musculus); experiment: Inhibition of MITF in mouse B16F10 cells assessed as inhibition of alpha-MSH-induced tyrosinase promoter activity after 24 hrs by luciferase reporter gene assay; format: cell-based; settings: B16-F10
B16-F10 [18] = experiment: Inhibition of CREB phosphorylation in alpha-MSH-induced mouse B16F10 cells at 1 uM after 30 mins to 2 hrs by Western blotting analysis; format: cell-based
[19] = target: RAC-alpha serine/threonine-protein kinase (Mus musculus) (UniProt P31750); experiment: Inhibition of Akt phosphorylation in alpha-MSH-induced mouse B16F10 cells at 1 uM after 30 mins to 2 hrs by Western blotting analysis; format: cell-based; settings: B16-F10
Sequence of RAC-alpha serine/threonine-protein kinase (Mus musculus) (P31750 whole entry): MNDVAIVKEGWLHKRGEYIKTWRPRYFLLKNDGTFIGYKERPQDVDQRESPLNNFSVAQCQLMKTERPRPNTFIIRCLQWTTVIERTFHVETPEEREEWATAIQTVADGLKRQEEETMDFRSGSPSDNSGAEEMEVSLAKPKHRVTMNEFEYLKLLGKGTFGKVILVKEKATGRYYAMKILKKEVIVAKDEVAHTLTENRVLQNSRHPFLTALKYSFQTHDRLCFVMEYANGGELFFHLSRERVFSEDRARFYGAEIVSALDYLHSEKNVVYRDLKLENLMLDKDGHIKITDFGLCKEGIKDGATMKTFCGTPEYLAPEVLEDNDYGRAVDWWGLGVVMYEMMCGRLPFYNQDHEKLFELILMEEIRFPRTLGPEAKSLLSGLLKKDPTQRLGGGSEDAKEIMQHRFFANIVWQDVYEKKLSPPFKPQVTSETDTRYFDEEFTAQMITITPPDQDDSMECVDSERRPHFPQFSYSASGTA

[20] = target: T1, Microphthalmia-associated transcription factor (Mus musculus); experiment: Inhibition of MITF in mouse B16F10 cells assessed as inhibition of alpha-MSH-induced TRP1 mRNA expression after 48 hrs by RT-PCR analysis; format: cell-based; settings: B16-F10
[21] = target: T1, Microphthalmia-associated transcription factor (Mus musculus); experiment: Inhibition of MITF binding to M-box region of tyrosinase promoter in alpha-MSH-induced mouse B16F10 cells at 1 uM after 24 hrs by Chromatin immunoprecipitation assay; format: cell-based; settings: B16-F10
[22] = target: Glycogen synthase kinase-3 beta (Mus musculus) (UniProt Q9WV60); experiment: Inhibition of GSK-3beta phosphorylation in alpha-MSH-induced mouse B16F10 cells at 1 uM after 30 mins to 2 hrs by Western blotting analysis; format: cell-based; settings: B16-F10
Sequence of Glycogen synthase kinase-3 beta (Mus musculus) (Q9WV60 whole entry, looked up): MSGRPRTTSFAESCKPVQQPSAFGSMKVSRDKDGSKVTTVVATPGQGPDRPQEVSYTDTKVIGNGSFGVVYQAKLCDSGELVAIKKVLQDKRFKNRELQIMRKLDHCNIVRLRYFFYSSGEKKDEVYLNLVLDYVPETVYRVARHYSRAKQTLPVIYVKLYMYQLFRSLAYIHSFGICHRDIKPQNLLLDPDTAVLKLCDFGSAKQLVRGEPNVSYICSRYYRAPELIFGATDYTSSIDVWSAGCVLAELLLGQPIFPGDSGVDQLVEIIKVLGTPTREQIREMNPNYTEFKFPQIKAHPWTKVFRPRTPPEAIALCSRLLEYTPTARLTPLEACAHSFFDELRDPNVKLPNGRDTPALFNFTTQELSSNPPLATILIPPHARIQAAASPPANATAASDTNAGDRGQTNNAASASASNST

SMILES: O=C(/C=C/c1ccccc1)OCCc1ccccc1
- inhibition (B16-F10 [1]): inactive

SMILES: O=C(O)/C=C/c1ccc(O)c(O)c1
- inhibition (B16-F10 [1]): inactive

SMILES: OCCc1ccccc1
- inhibition (B16-F10 [1]): inactive

- inhibition [4]: Dose-dependent effect
- inhibition [5]: Dose-dependent effect
- inhibition [8]: Dose-dependent effect
- inhibition [9]: Active
- inhibition [10]: Active
- inhibition [11]: Dose-dependent effect
- inhibition [13]: inactive
- inhibition [14]: Active
- inhibition [15]: Dose-dependent effect
- inhibition [17]: Dose-dependent effect
- inhibition [19]: inactive
- inhibition [20]: Dose-dependent effect
- inhibition [21]: Active
- inhibition [22]: inactive
SMILES: O=C(/C=C/c1ccc(O)c(O)c1)OCCc1ccccc1 [CAFFEIC ACID PHENETHYL ESTER]
- inhibition (B16-F10 [2]): Dose-dependent effect
- inhibition (B16-F10 [3]): Dose-dependent effect
- inhibition (B16-F10 [6]): inactive
- inhibition (B16-F10 [7]): inactive
- Activity (B16-F10 [12]): Non-toxic
- inhibition (B16-F10 [16]): inactive
- inhibition (B16-F10 [18]): inactive
